The record followed here is patent US20230339854A1, “Negative Allosteric Modulation of GluN3-Containing N-Methyl-D-Aspartate Receptors” (Emory University, priority 2020, published 2023).

This assay addresses T1, human GluN1^FA,TL/GluN3A receptors (Homo sapiens, UniProt Q8TCU5).
T1 construct: Human GluN3A (NP_597702.2) and rat GluN3B (NP_579842.2) were synthesized and subcloned into SP6 plasmids; expressed in transfected cells; host or cells: Xenopus laevis oocytes, cRNA injection (GluN1:GluN3 1:3)
Nature of the assay: Two-electrode voltage-clamp recordings of GluN1^FA,TL/GluN3A receptors in Xenopus oocytes. The class given is cell-based. Particulars: for remaining activity at 30 µM: read-out: hGluN1^FA,TL/hGluN3A (100 × Idrug/Icontrol at 30 μM drug). From the text: cDNA encoding human wild-type (WT) GluN1-1a (GenBank accession numbers NP_015566, hereafter GluN1) and rat GluN1-1a (NP_058706.1) were synthesized and subcloned into pGEMHE plasmid; some experiments used the rat splice variant GluN1-4a (NP_001257531.1). Human GluN3A (NP_597702.2) and rat GluN3B (NP_579842.2) were synthesized and subcloned into SP6 plasmids. For most experiments, human GluN1 was co-expressed with human GluN3A, except for mutagenesis experiments where rat GluN1 was co-expressed with human GluN3A. Rat GluN1-4a was always expressed with rat GluN3B.
Defolliculated Xenopus laevis oocytes (stage V-VI) were obtained from Ecocyte BioScience (Austin, Texas), or prepared from commercially available Xenopus ovaries (Xenopus 1, Dexter, MI) as previously described (Hansen, et al., Mol. Pharmacol., 2013). A Drummond Nanoject II (Broomall, PA) was used to inject oocytes with cRNAs encoding GluN1 and GluN3 at a 1:3 ratio in RNase-free water. The cRNA was diluted as needed to give responses with amplitudes ranging between 200-2000 nA (0.2-10 ng total cRNA). Following cRNA injection, the oocytes were stored at 15-19° C. in Barth's solution that contained (in mM) 88 NaCl, 2.4 NaHCO3, 1 KCl, 0.33 Ca(NO3)2, 0.41 CaCl2), 0.82 MgSO4, and 5 Tris-HCl (pH 7.4 with NaOH), supplemented with 1 μg/ml streptomycin (Invitrogen, Carlsbad, CA) and 100 μg/ml gentamicin (Fisher Scientific, Pittsburgh, PA). Recordings were performed 2-5 days following cRNA microinjection at room temperature (23° C.) using a two-electrode voltage-clamp amplifier (OC725, Warner Instrument, Hamilton, CT). The signal was low-pass filtered at 10-20 Hz (4-pole, −3 dB Bessel) and digitized at the Nyquist rate using PCI-6025E or USB-6212 BNC data acquisition boards (National Instruments, Austin, TX) using EasyOocyte (http://www.easyoocyte.io/). Oocytes were placed in a custom-made chamber and continuously perfused (2.5 ml/min) with oocyte recording solution containing (in mM) 90 NaCl, 1 KCl, 10 HEPES, 0.5-1.0 BaCl2, and 0.01 EDTA (pH 7.4 with NaOH). Solutions were applied by gravity, and solution exchange was controlled through a rotary valve (Hamilton, Reno, NV). Recording electrodes were filled with 0.3-3.0 M KCl, and current responses were recorded at a holding potential of −40 mV.
Response (%)=(100−minimum)/(1+([concentration]/IC50)^nH)+minimum (2) • where nH is the Hill slope, IC50 is the concentration that produces a half-maximal effect, and minimum is the degree of residual inhibition at a saturating concentration of the negative allosteric modulator.
The afore-referenced compounds were screened in the same assay as EU1180-438 to determine their effects on hGluN1^FA,TL/hGluN3A receptors. Selected compounds that inhibited by more than 20% at the concentration at which they were initially evaluated (either 10 or 30 μM) were analyzed further, and a dose-response curve was generated to determine their IC50 values.

T1 sequence (Q8TCU5 24-1115, other chains not shown): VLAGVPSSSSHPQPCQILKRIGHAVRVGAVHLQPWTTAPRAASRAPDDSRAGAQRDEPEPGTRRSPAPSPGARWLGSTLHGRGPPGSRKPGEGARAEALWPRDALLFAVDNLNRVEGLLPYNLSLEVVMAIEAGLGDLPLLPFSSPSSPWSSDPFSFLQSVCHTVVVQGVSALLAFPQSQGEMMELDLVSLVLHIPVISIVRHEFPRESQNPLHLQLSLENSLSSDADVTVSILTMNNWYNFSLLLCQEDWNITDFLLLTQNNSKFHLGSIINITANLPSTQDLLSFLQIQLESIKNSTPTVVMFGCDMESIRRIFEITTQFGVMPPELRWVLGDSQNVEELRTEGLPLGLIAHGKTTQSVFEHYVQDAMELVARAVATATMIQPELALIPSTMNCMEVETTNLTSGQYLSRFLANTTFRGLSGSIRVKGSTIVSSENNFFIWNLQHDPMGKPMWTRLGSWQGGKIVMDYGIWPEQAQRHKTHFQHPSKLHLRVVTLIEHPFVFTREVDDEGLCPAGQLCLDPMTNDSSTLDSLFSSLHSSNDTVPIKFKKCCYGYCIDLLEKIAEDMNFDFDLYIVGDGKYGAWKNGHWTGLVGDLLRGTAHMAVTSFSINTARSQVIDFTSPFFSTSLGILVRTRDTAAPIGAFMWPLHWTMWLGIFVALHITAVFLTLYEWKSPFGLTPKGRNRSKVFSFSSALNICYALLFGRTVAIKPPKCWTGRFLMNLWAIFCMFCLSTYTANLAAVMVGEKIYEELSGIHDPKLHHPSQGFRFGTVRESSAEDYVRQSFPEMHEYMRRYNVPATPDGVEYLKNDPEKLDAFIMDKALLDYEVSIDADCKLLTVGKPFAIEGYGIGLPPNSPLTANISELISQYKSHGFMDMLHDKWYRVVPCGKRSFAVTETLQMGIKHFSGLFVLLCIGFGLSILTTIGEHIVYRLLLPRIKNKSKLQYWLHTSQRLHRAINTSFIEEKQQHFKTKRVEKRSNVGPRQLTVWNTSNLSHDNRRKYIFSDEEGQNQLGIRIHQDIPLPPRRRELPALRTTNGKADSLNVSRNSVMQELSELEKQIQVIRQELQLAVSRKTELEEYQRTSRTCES

Consider `COc1ccc(C(COc2cccc(C)n2)N2Cc3ccc(C(F)(F)F)cc3C2=O)cc1` (centres unmarked) [EU1180-593, 2-(1-(4-Methoxyphenyl)-2-((6-methylpyridin-2-yl)oxy)ethyl)-6-(trifluoromethyl)isoindolin-1-one], for which the remaining activity at 30 µM is 83%.
In the case of `COc1cc(F)c(C(COc2cccc(C)n2)N2Cc3ccccc3C2=O)c(F)c1` (centres unmarked) [EU1180-608, 2-(1-(2,6-Difluoro-4-methoxyphenyl)-2-((6-methylpyridin-2-yl)oxy)ethyl)isoindolin-1-one], the remaining activity at 30 µM stood at 70%.
Regarding `Cc1cccc(OCC(c2ccc(OC(C)C)cc2)N2Cc3ccc(Br)cc3C2=O)n1` (centres unmarked) [EU1180-514, 6-bromo-2-(1-(4-isopropoxyphenyl)-2-((6-methylpyridin-2-yl)oxy)ethyl)isoindolin-1-one], the remaining activity at 30 µM was determined as 93%.
`COc1ccc(OCC(c2ccc(OC)c(OC)c2)N2Cc3ccc(Br)cc3C2=O)cc1` (centres unmarked) [EU1180-527, 6-Bromo-2-(1-(3,4-dimethoxyphenyl)-2-(4-methoxyphenoxy)ethyl)isoindolin-1-one]: the remaining activity at 30 µM worked out at 94%.
Turning to `COc1ccc(C(COc2cccc(C)n2)N2Cc3ccccc3C2=O)c(F)c1` (centres unmarked) [EU1180-600, 2-(1-(2-Fluoro-4-methoxyphenyl)-2-((6-methylpyridin-2-yl)oxy)ethyl)isoindolin-1-one], the remaining activity at 30 µM amounted to 87%.
In the case of `COc1ccc(OCC(c2c(F)cc(OC)cc2F)N2Cc3cc(Cl)ccc3C2=O)cc1` (centres unmarked) [EU1180-547, 5-Chloro-2-(1-(2,6-difluoro-4-methoxyphenyl)-2-(4-methoxyphenoxy)ethyl)isoindolin-1-one], the remaining activity at 30 µM worked out at 98%.
Consider `COc1ccc(C(COc2cccc(C)n2)N2Cc3cc(Br)ccc3C2=O)cc1` (centres unmarked) [EU1180-596, 5-Bromo-2-(1-(4-methoxyphenyl)-2-((6-methylpyridin-2-yl)oxy)ethyl)isoindolin-1-one], for which the remaining activity at 30 µM was found to be 92%.
Take `COc1ccc(OCC(c2ccc(OC(C)C)cc2)N2Cc3cc(F)ccc3C2=O)cc1` (centres unmarked) [EU1180-561, 5-fluoro-2-(1-(4-isopropoxyphenyl)-2-(4-methoxyphenoxy)ethyl)isoindolin-1-one]: the remaining activity at 30 µM was found to be 88%.
With `CCOc1ccc(OCC(c2ccc(OC(C)C)cc2)N2Cc3ccc(Br)cc3C2=O)cc1` (centres unmarked) [EU1180-592, 6-bromo-2-(2-(4-ethoxyphenoxy)-1-(4-isopropoxyphenyl)ethyl)isoindolin-1-one], the remaining activity at 30 µM stood at 78%.
Take `CC(C)Oc1ccc(C(COc2ccc(OC(F)(F)F)cc2)N2Cc3ccccc3C2=O)cc1` (centres unmarked) [EU1180-538, 2-(1-(4-isopropoxyphenyl)-2-(4-(trifluoromethoxy)phenoxy)ethyl)isoindolin-1-one]: the remaining activity at 30 µM came to 99%.
As to `COc1ccc(OCC(c2ccc(OC(C)C)cc2)N2Cc3ccc(Br)cc3C2=O)cc1` (centres unmarked) [EU1180-562, 6-bromo-2-(1-(4-isopropoxyphenyl)-2-(4-methoxyphenoxy)ethyl)isoindolin-1-one], the remaining activity at 30 µM stood at 98%.
Take `COc1ccc(OCC(c2c(F)cc(OC)cc2F)N2Cc3ccccc3C2=O)cc1` (centres unmarked) [EU1180-545, 2-(1-(2,6-Difluoro-4-methoxyphenyl)-2-(4-methoxyphenoxy)ethyl)isoindolin-1-one]: the remaining activity at 30 µM was found to be 74%.
Take `COc1ccc(OCC(c2ccc(OC(C)C)cc2)N2Cc3cc(Cl)ccc3C2=O)cc1` (centres unmarked) [EU1180-559, 5-chloro-2-(1-(4-isopropoxyphenyl)-2-(4-methoxyphenoxy)ethyl)isoindolin-1-one]: the remaining activity at 30 µM was 96%.
As for `COc1cc(F)c(C(COc2cccc(C)n2)N2Cc3ccc(C(F)(F)F)cc3C2=O)c(F)c1` (centres unmarked) [EU1180-609, 2-(1-(2,6-Difluoro-4-methoxyphenyl)-2-((6-methylpyridin-2-yl)oxy)ethyl)-6-(trifluoromethyl)isoindolin-1-one], the remaining activity at 30 µM came to 81%.
As usually defined, the IC50 is the midpoint of a concentration-inhibition curve. For `CCOc1ccc(OCC(c2ccc(OC(C)C)cc2)N2Cc3ccc(F)cc3C2=O)cc1` (centres unmarked) [EU1180-590, 6-fluoro-2-(2-(4-ethoxyphenoxy)-1-(4-isopropoxyphenyl)ethyl)isoindolin-1-one], the remaining activity at 30 µM turned out to be 35%. Further, for the setting “hGluN1^FA,TL/hGluN3A, read-out: IC50”, the IC50 came out at 15.7 µM.
Consider `COc1ccc(OCC(c2ccc(OC(C)C)cc2)N2Cc3cc(Br)ccc3C2=O)cc1` (centres unmarked) [EU1180-563, 5-bromo-2-(1-(4-isopropoxyphenyl)-2-(4-methoxyphenoxy)ethyl)isoindolin-1-one], for which the remaining activity at 30 µM was determined as 98%.
With `CC(C)Oc1ccc(C(COc2ccc(C(F)(F)F)cc2)N2Cc3ccccc3C2=O)cc1` (centres unmarked) [EU1180-571, 2-(1-(4-isopropoxyphenyl)-2-(4-(trifluoromethyl)phenoxy)ethyl)isoindolin-1-one], the remaining activity at 30 µM was 94%.
On the same count and under the same terms, the result for `COc1ccc(OCC(c2ccc(OC)cc2F)N2Cc3cc(Br)ccc3C2=O)cc1` (centres unmarked) [EU1180-534, 5-Bromo-2-(1-(2-fluoro-4-methoxyphenyl)-2-(4-methoxyphenoxy)ethyl)isoindolin-1-one] reads 99%; that for `CCOc1ccc(OCC(c2ccc(OC(C)C)cc2)N2Cc3ccc(C(F)(F)F)cc3C2=O)cc1` (centres unmarked) [EU1180-587, 2-(2-(4-ethoxyphenoxy)-1-(4-isopropoxyphenyl)ethyl)-6-(trifluoromethyl)isoindolin-1-one], 98%; that for `Cc1cccc(OCC(c2ccc(OC(C)C)cc2)N2Cc3cc(Br)ccc3C2=O)n1` (centres unmarked) [EU1180-515, 5-bromo-2-(1-(4-isopropoxyphenyl)-2-((6-methylpyridin-2-yl)oxy)ethyl)isoindolin-1-one], 100%.
On to `COc1ccc(OCC(c2ccc(OC)cc2)N2Cc3cc(Cl)ccc3C2=O)cc1` (centres unmarked) [EU1180-517, 5-Chloro-2-(2-(4-methoxyphenoxy)-1-(4-methoxyphenyl)ethyl)isoindolin-1-one], for which the remaining activity at 30 µM was determined as 92%.
With `Cc1cccc(OCC(c2ccc(OC(C)C)cc2)N2Cc3ccc(F)cc3C2=O)n1` (centres unmarked) [EU1180-512, 6-fluoro-2-(1-(4-isopropoxyphenyl)-2-((6-methylpyridin-2-yl)oxy)ethyl)isoindolin-1-one], the remaining activity at 30 µM was 36%.
As to `COc1ccc(C(COc2cccc(C)n2)N2Cc3cc(Cl)ccc3C2=O)cc1` (centres unmarked) [EU1180-594, 5-Chloro-2-(1-(4-methoxyphenyl)-2-((6-methylpyridin-2-yl)oxy)ethyl)isoindolin-1-one], the remaining activity at 30 µM worked out at 73%.
On to `COc1ccc(OCC(c2ccc(OC)cc2)N2Cc3ccc(Br)cc3C2=O)cc1` (centres unmarked) [EU1180-520, 6-Bromo-2-(2-(4-methoxyphenoxy)-1-(4-methoxyphenyl)ethyl)isoindolin-1-one], for which the remaining activity at 30 µM amounted to 64%.
The same measure, in the same setting: the result for `CCOc1ccc(OCC(c2ccc(OC(C)C)cc2)N2Cc3cc(Cl)ccc3C2=O)cc1` (centres unmarked) [EU1180-589, 5-chloro-2-(2-(4-ethoxyphenoxy)-1-(4-isopropoxyphenyl)ethyl)isoindolin-1-one] reads 87%; that for `COc1ccc(OCC(c2c(F)cc(OC)cc2F)N2Cc3cc(Br)ccc3C2=O)cc1` (centres unmarked) [EU1180-549, 5-Bromo-2-(1-(2,6-difluoro-4-methoxyphenyl)-2-(4-methoxyphenoxy)ethyl)isoindolin-1-one], 95%.
On to `COc1ccc(C(COc2cccc(C)n2)N2Cc3cc(Cl)ccc3C2=O)c(F)c1` (centres unmarked) [EU1180-604, 5-Chloro-2-(1-(2-fluoro-4-methoxyphenyl)-2-((6-methylpyridin-2-yl)oxy)ethyl)isoindolin-1-one], for which the remaining activity at 30 µM was found to be 81%.
For the compound `COc1ccc(OCC(c2ccc(OC)cc2)N2Cc3ccc(Cl)cc3C2=O)cc1` (centres unmarked) [EU1180-516, 6-Chloro-2-(2-(4-methoxyphenoxy)-1-(4-methoxyphenyl)ethyl)isoindolin-1l-one], for the setting “30 μM drug”, the “hGluN1^FA,TL/hGluN3A (100 × Idrug/Icontrol at 30 μM drug)” value was found to be 44%.
